{
  "source": "the supplement of paper PMC6045584",
  "note": "± gives the standard deviation of the averaged measurements.",
  "data": [
    {"compound": "CS(=O)(=O)c1ccc(C(=O)Nc2ccc(Cl)c(-c3ccccn3)c2)c(Cl)c1 [VISMODEGIB]", "experiment": "surviving fraction relative to DMSO-only wells; higher = less growth inhibition", "conditions": "50 nM; exposure time: 5 days", "in_short": "(§1)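 At 250–500 cells per well in 384-well plates, log-phase tumour cell lines were seeded and, 24 hours on, exposed continuously for five days to inhibitors at 0.5, 1, 5, 10, 50, 100, 500 and 1000 nM. Viability readout was CellTiter-Glo luminescence, reported as surviving fraction normalised to the median of DMSO-only wells.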", "values": [
      {"test system": "SCC36 HEADNECK", "surviving fraction": "0.739 ± 0.094"},
      {"test system": "OS25HAL BONE", "surviving fraction": "0.967 ± 0.019"},
      {"test system": "HCC1806 BREAST", "surviving fraction": "0.932 ± 0.093"},
      {"test system": "HU09 BONE", "surviving fraction": "0.913 ± 0.04"},
      {"test system": "SG43 HEADNECK", "surviving fraction": "1.18 ± 0.35"},
      {"test system": "U2OS BONE", "surviving fraction": "1.02 ± 0.065"},
      {"test system": "HOSMNG BONE", "surviving fraction": "0.942 ± 0.15"},
      {"test system": "CASKI CERVIX", "surviving fraction": "0.828 ± 0.049"},
      {"test system": "SUM44 BREAST", "surviving fraction": "0.929 ± 0.051"},
      {"test system": "MDAMB231 BREAST", "surviving fraction": "0.884 ± 0.014"},
      {"test system": "CAL51 BREAST", "surviving fraction": "0.931 ± 0.056"},
      {"test system": "MDAMB436 BREAST", "surviving fraction": "0.891 ± 0.04"},
      {"test system": "HSSYII SYNOVIAL", "surviving fraction": "0.812 ± 0.027"},
      {"test system": "RDES SOFT TISSUE", "surviving fraction": "0.677 ± 0.3"},
      {"test system": "MDAMB157 BREAST", "surviving fraction": "1.02 ± 0.11"},
      {"test system": "CHLA90 AUTONOMIC GANGLIA", "surviving fraction": "0.914 ± 0.079"},
      {"test system": "CADOES1 SOFT TISSUE", "surviving fraction": "0.952 ± 0.047"},
      {"test system": "SG31 HEADNECK", "surviving fraction": "0.783 ± 0.031"},
      {"test system": "SCC47 HEADNECK", "surviving fraction": "0.892 ± 0.026"},
      {"test system": "S68 BREAST", "surviving fraction": "0.762 ± 0.19"},
      {"test system": "SNU475 LIVER", "surviving fraction": "0.884 ± 0.032"},
      {"test system": "22RV1 PROSTATE", "surviving fraction": "0.924 ± 0.037"},
      {"test system": "SG32 HEADNECK", "surviving fraction": "0.857 ± 0.06"},
      {"test system": "SCC003 HEADNECK", "surviving fraction": "0.918 ± 0.082"},
      {"test system": "JURKAT HAEMATOPOIETIC AND LYMPHOID TISSUE", "surviving fraction": "0.99 ± 0.016"},
      {"test system": "HT1080 SOFT TISSUE", "surviving fraction": "0.968 ± 0.046"},
      {"test system": "CAL120 BREAST", "surviving fraction": "0.997 ± 0.021"},
      {"test system": "MCF7 BREAST", "surviving fraction": "0.883 ± 0.032"},
      {"test system": "MFM223 BREAST", "surviving fraction": "0.841 ± 0.08"},
      {"test system": "LNCAP PROSTATE", "surviving fraction": "1.14 ± 0.11"},
      {"test system": "PCI30 HEADNECK", "surviving fraction": "0.898 ± 0.079"},
      {"test system": "OSHN BONE", "surviving fraction": "0.955 ± 0.021"},
      {"test system": "SG28 HEADNECK", "surviving fraction": "0.801 ± 0.043"},
      {"test system": "HOS BONE", "surviving fraction": "0.991 ± 0.026"},
      {"test system": "HUO3N1 BONE", "surviving fraction": "0.977 ± 0.025"},
      {"test system": "BT20 BREAST", "surviving fraction": "0.964 ± 0.086"},
      {"test system": "SJSA1 BONE", "surviving fraction": "1.04 ± 0.073"},
      {"test system": "JIMT1 BREAST", "surviving fraction": "0.849 ± 0.035"},
      {"test system": "HCC78 LUNG", "surviving fraction": "1.1 ± 0.21"},
      {"test system": "NY BONE", "surviving fraction": "0.993 ± 0.025"},
      {"test system": "NOS1 BONE", "surviving fraction": "0.926 ± 0.088"},
      {"test system": "SUM149.B1*.S BREAST", "surviving fraction": "0.922 ± 0.051"},
      {"test system": "93VU HEADNECK", "surviving fraction": "0.868 ± 0.025"},
      {"test system": "LM7 BONE", "surviving fraction": "0.865 ± 0.01"},
      {"test system": "143B BONE", "surviving fraction": "0.966 ± 0.042"},
      {"test system": "SUM159 BREAST", "surviving fraction": "1.06 ± 0.12"},
      {"test system": "SUM149 BREAST", "surviving fraction": "0.904 ± 0.1"},
      {"test system": "MDAMB361 BREAST", "surviving fraction": "0.571 ± 0.019"},
      {"test system": "SAOS2 BONE", "surviving fraction": "0.834 ± 0.082"},
      {"test system": "ASKA SYNOVIAL", "surviving fraction": "0.939 ± 0.03"},
      {"test system": "HCC1395 BREAST", "surviving fraction": "0.681 ± 0.14"},
      {"test system": "HCC1954 BREAST", "surviving fraction": "0.768 ± 0.18"},
      {"test system": "CME SYNOVIAL", "surviving fraction": "1.07 ± 0.098"},
      {"test system": "VCAP PROSTATE", "surviving fraction": "0.905 ± 0.033"},
      {"test system": "YAMATO SYNOVIAL", "surviving fraction": "0.917 ± 0.031"},
      {"test system": "HCC202 BREAST", "surviving fraction": "0.945 ± 0.46"},
      {"test system": "HELA CERVIX", "surviving fraction": "1.0558 ± 0.001"},
      {"test system": "SG27 HEADNECK", "surviving fraction": "0.933 ± 0.039"},
      {"test system": "CAL72 BONE", "surviving fraction": "0.919 ± 0.042"}
    ]},
    {"compound": "CS(=O)(=O)c1ccc(C(=O)Nc2ccc(Cl)c(-c3ccccn3)c2)c(Cl)c1 [VISMODEGIB]", "experiment": "surviving fraction relative to DMSO-only wells; higher = less growth inhibition", "conditions": "100 nM; exposure time: 5 days", "in_short": "as §1", "values": [
      {"test system": "SCC36 HEADNECK", "surviving fraction": "0.779 ± 0.085"},
      {"test system": "OS25HAL BONE", "surviving fraction": "0.98 ± 0.005"},
      {"test system": "HCC1806 BREAST", "surviving fraction": "0.98 ± 0.1"},
      {"test system": "HU09 BONE", "surviving fraction": "0.898 ± 0.066"},
      {"test system": "SG43 HEADNECK", "surviving fraction": "0.9673 ± 0.0015"},
      {"test system": "U2OS BONE", "surviving fraction": "1.04 ± 0.046"},
      {"test system": "HOSMNG BONE", "surviving fraction": "0.991 ± 0.093"},
      {"test system": "CASKI CERVIX", "surviving fraction": "0.893 ± 0.058"},
      {"test system": "SUM44 BREAST", "surviving fraction": "0.9713 ± 0.0095"},
      {"test system": "MDAMB231 BREAST", "surviving fraction": "0.9527 ± 0.0036"},
      {"test system": "CAL51 BREAST", "surviving fraction": "0.975 ± 0.071"},
      {"test system": "MDAMB436 BREAST", "surviving fraction": "0.915 ± 0.056"},
      {"test system": "HSSYII SYNOVIAL", "surviving fraction": "0.831 ± 0.03"},
      {"test system": "RDES SOFT TISSUE", "surviving fraction": "0.83 ± 0.34"},
      {"test system": "MDAMB157 BREAST", "surviving fraction": "1.13 ± 0.12"},
      {"test system": "CHLA90 AUTONOMIC GANGLIA", "surviving fraction": "0.925 ± 0.013"},
      {"test system": "CADOES1 SOFT TISSUE", "surviving fraction": "1.05 ± 0.091"},
      {"test system": "SG31 HEADNECK", "surviving fraction": "0.94 ± 0.054"},
      {"test system": "SCC47 HEADNECK", "surviving fraction": "0.963 ± 0.026"},
      {"test system": "S68 BREAST", "surviving fraction": "0.917 ± 0.23"},
      {"test system": "SNU475 LIVER", "surviving fraction": "0.89 ± 0.03"},
      {"test system": "22RV1 PROSTATE", "surviving fraction": "1.102 ± 0.0057"},
      {"test system": "SG32 HEADNECK", "surviving fraction": "1.08 ± 0.26"},
      {"test system": "SCC003 HEADNECK", "surviving fraction": "1.05 ± 0.14"},
      {"test system": "JURKAT HAEMATOPOIETIC AND LYMPHOID TISSUE", "surviving fraction": "1.04 ± 0.026"},
      {"test system": "HT1080 SOFT TISSUE", "surviving fraction": "0.991 ± 0.048"},
      {"test system": "CAL120 BREAST", "surviving fraction": "1.01 ± 0.013"},
      {"test system": "MCF7 BREAST", "surviving fraction": "0.966 ± 0.043"},
      {"test system": "MFM223 BREAST", "surviving fraction": "0.875 ± 0.081"},
      {"test system": "LNCAP PROSTATE", "surviving fraction": "1.08 ± 0.19"},
      {"test system": "PCI30 HEADNECK", "surviving fraction": "0.949 ± 0.017"},
      {"test system": "OSHN BONE", "surviving fraction": "0.991 ± 0.024"},
      {"test system": "SG28 HEADNECK", "surviving fraction": "0.831 ± 0.019"},
      {"test system": "HOS BONE", "surviving fraction": "1.03 ± 0.05"},
      {"test system": "HUO3N1 BONE", "surviving fraction": "0.962 ± 0.052"},
      {"test system": "BT20 BREAST", "surviving fraction": "0.901 ± 0.058"},
      {"test system": "SJSA1 BONE", "surviving fraction": "1.02 ± 0.052"},
      {"test system": "JIMT1 BREAST", "surviving fraction": "0.972 ± 0.021"},
      {"test system": "HCC78 LUNG", "surviving fraction": "1.32 ± 0.2"},
      {"test system": "NY BONE", "surviving fraction": "0.996 ± 0.016"},
      {"test system": "NOS1 BONE", "surviving fraction": "0.958 ± 0.049"},
      {"test system": "SUM149.B1*.S BREAST", "surviving fraction": "0.988 ± 0.0033"},
      {"test system": "93VU HEADNECK", "surviving fraction": "0.964 ± 0.093"},
      {"test system": "LM7 BONE", "surviving fraction": "0.909 ± 0.067"},
      {"test system": "143B BONE", "surviving fraction": "0.965 ± 0.013"},
      {"test system": "SUM159 BREAST", "surviving fraction": "1.08 ± 0.084"},
      {"test system": "SUM149 BREAST", "surviving fraction": "0.887 ± 0.014"},
      {"test system": "MDAMB361 BREAST", "surviving fraction": "0.612 ± 0.093"},
      {"test system": "SAOS2 BONE", "surviving fraction": "0.954 ± 0.052"},
      {"test system": "ASKA SYNOVIAL", "surviving fraction": "0.964 ± 0.05"},
      {"test system": "HCC1395 BREAST", "surviving fraction": "0.695 ± 0.055"},
      {"test system": "HCC1954 BREAST", "surviving fraction": "0.6402 ± 0.0025"},
      {"test system": "CME SYNOVIAL", "surviving fraction": "1.12 ± 0.13"},
      {"test system": "VCAP PROSTATE", "surviving fraction": "1.08 ± 0.12"},
      {"test system": "YAMATO SYNOVIAL", "surviving fraction": "0.967 ± 0.15"},
      {"test system": "HCC202 BREAST", "surviving fraction": "0.785 ± 0.2"},
      {"test system": "HELA CERVIX", "surviving fraction": "1.14 ± 0.041"},
      {"test system": "SG27 HEADNECK", "surviving fraction": "0.961 ± 0.052"},
      {"test system": "CAL72 BONE", "surviving fraction": "0.934 ± 0.025"}
    ]}
  ]
}
